Measured values from US8637493B2, “Methods for treating glioblastoma” (University of Massachusetts, priority 2009, dated 2014).

Legend:
U87NS = assay: Neurosphere formation / recovery / secondary neurosphere assay, U87NS; type: cell-based, human; settings: LY alone at various concentrations, counted after 7 days
Experimental: (§1) The effect of chemotherapy on neurosphere formation was assayed in glioma neurosphere cultures. Cultures are treated with a single dose of the agent, e.g., TMZ and multiple doses of a GSI, e.g., DAPT to inhibit the Notch pathway. After the Treatment phase, the number of initial spheres (counted about 7 days after TMZ treatment) represents the number of proliferating CSC/progenitors (FIG. 1 for schematic). Recovery (counted 14 days after TMZ treatment) includes enlargement of the initial spheres and new spheres formed when CSC/progenitor cells quiescent as a result of chemotherapy resume cell proliferation. […] The cells used included U87NS, a neurosphere culture converted to neurosphere growth in defined medium from U87MG (an old Swedish line that is grown in conventional serum conditions); GS7-2, GS8-26 and GS6-22 primary neurosphere cultures that were obtained from grade IV GBM patient tumor samples and AS5-15, which was obtained from a grade III anaplastic astrocytoma.
(§2) To determine the effects of TMZ plus DAPT neurospheres, cells were plated as previously described (Mihaliak et al., Cancer Letts. 296, 168-177 (2010)). Immediately after plating, cells were treated with DMSO, DAPT-only, LY411,575 (LY)-only TMZ-only, TMZ+DAPT or TMZ+LY. The initial neurospheres were counted on day 7 for the converted cell lines and on day 10 for the slower growing primary lines. Neurosphere recovery was measured on day 14 or 20. The neurospheres were dissociated, re-plated and secondary neurosphere formation was measured on day 21 or 30.
(§3) Neurosphere cultures were dissociated to single cell suspensions by pH dissociation followed by filtration through 40 μm screens. For the neurosphere assay, 3,000 cells/ml of defined medium were seeded in 6-well plates. Immediately after plating, cells were treated with DMSO (Research Organics, Cleveland, Ohio) carrier control, TMZ-only, DAPT-only, or TMZ+DAPT. Additional DAPT was added on days 2 and 4. Neurospheres consisting of 10 or more cells were counted under a light microscope on day 7 for the converted cell lines. Primary lines have a slightly longer doubling time and were counted on day 10. After counting the neurospheres from the initial treatment, 2 ml of fresh defined medium was added to each well. DAPT was also added once more to the DAPT-only and TMZ+DAPT samples, and the cells were incubated for an additional 7 or 10 days. Neurospheres from the recovery period were counted on day 14 or day 20. To analyze secondary neurosphere formation, cells were collected, pelleted and dissociated to a single cell suspension by the pH method. Cells from each well were re-seeded into 6-well plates with 2 ml of defined medium. The number of secondary neurospheres formed by converted cell lines and primary cultures were counted on day 21 or day 30, respectively. All recovery assays were repeated with a minimum of 6 replicate sets of time points.
For the samples labeled “PRE-treat”, a single dose of DAPT was administered when the cells were plated, and then TMZ was added to the medium 24 hours later. For the “CO-treat” samples, single doses of TMZ and DART were added simultaneously when the cells were plated. Finally, samples labeled “POST-treat” were treated with TMZ, and then DAPT was added 24 hours later.

U373NS = assay: Neurosphere formation / recovery / secondary neurosphere assay, U373NS; type: cell-based, human
Experimental: as §1, §2, §3

Compound: C[C@H](NC(=O)[C@@H](O)c1cc(F)cc(F)c1)C(=O)N[C@@H]1C(=O)N(C)c2ccccc2-c2ccccc21 [LY, N-2((2S)-2-(3,5-difluorophenyl)-2-hydroxyethanoyl)-N1-((7S)-5-methyl-6-oxo-6,7-dihydro-5H-dibenzo[b,d]azepin-7-yl)-L-alaninamide]
- neurosphere formation (U87NS): dose-dependent decrease
- neurosphere formation (U373NS; LY alone at various concentrations, counted after 7 days): dose-dependent decrease
- secondary neurosphere formation compared to DMSO treated samples (U373NS; LY-only, secondary formation still robust): decreased
